Tests used:
PI3Kβ = biological target: T1, PI3Kβ (Homo sapiens, UniProt P42338); assay: Enzyme binding assay (KINOMEscan, DiscoveRx); conditions: PIK3Cβ_h, read-out: Kd PIK3Cβ_h
T1 construct: purchased DiscoveRx Corporation, San Diego (contract service, KINOMEscan)
Description: (§1) Enzyme Binding Assays (KINOMEscan®)
Kinase enzyme binding affinities of compounds disclosed herein were determined using the KINOMEscan technology performed by DiscoveRx Corporation, San Diego, Calif., USA (www.kinomescan.com). Table A reports the obtained Kd values (nM), with the Kd being the inhibitor binding constant: […]

[1] = tested on: Akt phosphorylated at Ser473 in PC-3 cells; assay: Cellular assay: phosphorylation of Akt at Ser473 in PC-3 cells (MSD ELISA); assay type: cell-based; conditions: PC-3 cells, 60 min compound incubation, MSD ELISA; read-out: IC50 pAkt_S473
Description: (§2) Cellular activity of PI3KP inhibitors was determined by quantifying the phosphorylation of Akt in PC-3 cells. Akt phosphorylated at Ser473 and Thr308 were measured using an enzyme-linked immunosorbent assay (ELISA; Meso Scale Discovery (MSD), Gaithersburg. Md.) and specific primary antibodies from MSD.
(§3) On day 2, compound or DMSO (0.3%) was added and cells were further incubated for 60 min at 37° C. 5% CO2 in a total volume of 100 μl of medium.
(§4) The phosphoprotein assay was executed according to vendor instructions in the Phospho-Akt (Ser473) Assay Whole Cell Lysate Kit (MSD # K15100D-3) and the Phospho-Akt (Thr308) Assay Whole Cell Lysate Kit (MSD # K151DYD-3) using the lysis, blocking and wash buffer provided.
(§5) Briefly, at the end of the cell treatment period, media were removed by aspiration and adherent cells were lysed in 50 μl ice-cold lysis buffer. MSD plates are supplied pre-coated with capture antibodies for Phospho-Akt (Ser473 and Thr308). After blocking, lysates from tissue culture plates were added and plates were washed. Then, a solution containing the detection antibody (anti-total Akt conjugated with an electrochemiluminescent compound-MSD Sulfo-tag label) was added. The signals were detected using an MSD SECTOR Imager 6000 and are proportional to the phospho-Akt titres.
(§6) Data were processed. […] From these concentration-response curves, the IC50 values were calculated. Five concentrations were used for curve fitting.

PI3Kδ = biological target: T2, PI3Kδ (Homo sapiens, UniProt O00329); assay: Enzyme binding assay (KINOMEscan, DiscoveRx); conditions: PIK3Cδ_h
T2 construct: purchased DiscoveRx Corporation, San Diego (contract service, KINOMEscan)
T2 sequence (O00329 1-1044): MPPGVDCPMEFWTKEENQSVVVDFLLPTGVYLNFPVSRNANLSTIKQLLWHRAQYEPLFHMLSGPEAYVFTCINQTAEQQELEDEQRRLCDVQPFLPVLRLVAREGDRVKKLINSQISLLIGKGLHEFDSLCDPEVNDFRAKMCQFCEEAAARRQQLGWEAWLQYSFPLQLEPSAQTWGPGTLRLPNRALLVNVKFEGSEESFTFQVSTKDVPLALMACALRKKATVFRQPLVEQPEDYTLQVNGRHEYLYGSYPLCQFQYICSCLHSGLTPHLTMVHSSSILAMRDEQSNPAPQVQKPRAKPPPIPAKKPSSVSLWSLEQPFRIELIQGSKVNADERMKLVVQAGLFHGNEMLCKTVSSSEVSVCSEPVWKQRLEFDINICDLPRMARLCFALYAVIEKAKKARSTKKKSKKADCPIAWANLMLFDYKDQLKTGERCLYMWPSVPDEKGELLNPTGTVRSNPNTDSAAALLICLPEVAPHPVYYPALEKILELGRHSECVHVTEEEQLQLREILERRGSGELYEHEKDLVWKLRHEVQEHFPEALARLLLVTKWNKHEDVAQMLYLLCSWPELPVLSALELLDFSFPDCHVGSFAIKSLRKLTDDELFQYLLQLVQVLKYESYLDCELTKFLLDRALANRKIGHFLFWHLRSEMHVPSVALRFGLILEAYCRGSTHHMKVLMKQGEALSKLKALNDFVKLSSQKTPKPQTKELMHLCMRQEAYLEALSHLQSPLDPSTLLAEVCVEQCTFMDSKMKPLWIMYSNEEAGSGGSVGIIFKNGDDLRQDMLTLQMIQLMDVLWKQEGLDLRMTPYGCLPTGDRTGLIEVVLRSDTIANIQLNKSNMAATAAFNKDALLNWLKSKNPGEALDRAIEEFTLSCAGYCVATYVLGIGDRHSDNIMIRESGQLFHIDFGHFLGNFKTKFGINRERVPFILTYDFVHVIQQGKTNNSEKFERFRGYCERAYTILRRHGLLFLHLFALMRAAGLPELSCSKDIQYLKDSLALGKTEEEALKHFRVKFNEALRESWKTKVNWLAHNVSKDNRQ
Description: as §1
(§7) Kinase enzyme binding affinities of compounds disclosed herein were determined using the KINOMEscan technology performed by DiscoveRx Corporation, San Diego, Calif., USA (www.kinomescan.com).

kinase enzymes [2] = biological target: T3, kinase enzymes (Homo sapiens, UniProt P48736); assay: Enzyme binding assay (KINOMEscan, DiscoveRx), further kinases of Table A; conditions: PIK3Cγ_h
T3 construct: purchased DiscoveRx Corporation, San Diego (contract service, KINOMEscan)
Description: as §1, §7

kinase enzymes [3] = biological target: T4, kinase enzymes (Homo sapiens, UniProt P42336); assay: as above; conditions: PIK3Cα_h
T4 construct: purchased DiscoveRx Corporation, San Diego (contract service, KINOMEscan)
Description: as §1, §7

kinase enzymes [4] = biological target: T5, kinase enzymes (Homo sapiens, UniProt P42345); assay: as above; conditions: MTOR_h
T5 construct: purchased DiscoveRx Corporation, San Diego (contract service, KINOMEscan)
Description: as §1, §7

[5] = tested on: Akt phosphorylated at Thr308 in PC-3 cells; assay: Cellular assay: phosphorylation of Akt at Thr308 in PC-3 cells (MSD ELISA); assay type: cell-based; conditions: PC-3 cells, 60 min compound incubation, MSD ELISA; read-out: IC50 pAkt_Thr308
Description: as §2, §3, §4, §5, §6

T4 sequence (P42336 whole entry): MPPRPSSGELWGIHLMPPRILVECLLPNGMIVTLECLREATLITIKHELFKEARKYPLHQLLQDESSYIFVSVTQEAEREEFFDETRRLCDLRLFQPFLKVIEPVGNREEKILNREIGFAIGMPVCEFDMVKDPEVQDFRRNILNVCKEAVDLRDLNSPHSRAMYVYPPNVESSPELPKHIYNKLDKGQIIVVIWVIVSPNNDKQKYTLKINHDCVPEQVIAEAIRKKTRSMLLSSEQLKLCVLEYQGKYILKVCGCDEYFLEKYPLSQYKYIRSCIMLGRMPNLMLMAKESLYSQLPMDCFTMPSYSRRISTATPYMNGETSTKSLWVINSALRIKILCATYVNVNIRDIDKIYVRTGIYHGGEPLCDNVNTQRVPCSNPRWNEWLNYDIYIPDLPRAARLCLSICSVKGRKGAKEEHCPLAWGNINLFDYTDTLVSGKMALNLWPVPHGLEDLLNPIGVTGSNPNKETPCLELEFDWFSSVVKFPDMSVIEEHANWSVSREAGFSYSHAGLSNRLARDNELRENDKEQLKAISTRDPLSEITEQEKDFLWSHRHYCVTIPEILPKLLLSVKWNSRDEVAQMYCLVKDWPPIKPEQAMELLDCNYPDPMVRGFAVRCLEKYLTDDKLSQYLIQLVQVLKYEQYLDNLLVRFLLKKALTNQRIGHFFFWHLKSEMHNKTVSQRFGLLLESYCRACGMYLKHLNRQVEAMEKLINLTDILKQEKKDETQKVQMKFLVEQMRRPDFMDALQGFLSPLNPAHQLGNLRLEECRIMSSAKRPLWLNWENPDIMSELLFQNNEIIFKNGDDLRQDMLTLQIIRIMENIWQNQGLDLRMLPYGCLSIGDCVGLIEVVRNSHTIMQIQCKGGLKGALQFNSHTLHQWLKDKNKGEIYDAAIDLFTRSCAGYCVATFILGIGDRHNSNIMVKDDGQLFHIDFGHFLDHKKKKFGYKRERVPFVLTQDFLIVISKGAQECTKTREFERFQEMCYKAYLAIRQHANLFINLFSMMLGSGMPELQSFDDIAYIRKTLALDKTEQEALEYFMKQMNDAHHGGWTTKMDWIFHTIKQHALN
T1 sequence (P42338 whole entry): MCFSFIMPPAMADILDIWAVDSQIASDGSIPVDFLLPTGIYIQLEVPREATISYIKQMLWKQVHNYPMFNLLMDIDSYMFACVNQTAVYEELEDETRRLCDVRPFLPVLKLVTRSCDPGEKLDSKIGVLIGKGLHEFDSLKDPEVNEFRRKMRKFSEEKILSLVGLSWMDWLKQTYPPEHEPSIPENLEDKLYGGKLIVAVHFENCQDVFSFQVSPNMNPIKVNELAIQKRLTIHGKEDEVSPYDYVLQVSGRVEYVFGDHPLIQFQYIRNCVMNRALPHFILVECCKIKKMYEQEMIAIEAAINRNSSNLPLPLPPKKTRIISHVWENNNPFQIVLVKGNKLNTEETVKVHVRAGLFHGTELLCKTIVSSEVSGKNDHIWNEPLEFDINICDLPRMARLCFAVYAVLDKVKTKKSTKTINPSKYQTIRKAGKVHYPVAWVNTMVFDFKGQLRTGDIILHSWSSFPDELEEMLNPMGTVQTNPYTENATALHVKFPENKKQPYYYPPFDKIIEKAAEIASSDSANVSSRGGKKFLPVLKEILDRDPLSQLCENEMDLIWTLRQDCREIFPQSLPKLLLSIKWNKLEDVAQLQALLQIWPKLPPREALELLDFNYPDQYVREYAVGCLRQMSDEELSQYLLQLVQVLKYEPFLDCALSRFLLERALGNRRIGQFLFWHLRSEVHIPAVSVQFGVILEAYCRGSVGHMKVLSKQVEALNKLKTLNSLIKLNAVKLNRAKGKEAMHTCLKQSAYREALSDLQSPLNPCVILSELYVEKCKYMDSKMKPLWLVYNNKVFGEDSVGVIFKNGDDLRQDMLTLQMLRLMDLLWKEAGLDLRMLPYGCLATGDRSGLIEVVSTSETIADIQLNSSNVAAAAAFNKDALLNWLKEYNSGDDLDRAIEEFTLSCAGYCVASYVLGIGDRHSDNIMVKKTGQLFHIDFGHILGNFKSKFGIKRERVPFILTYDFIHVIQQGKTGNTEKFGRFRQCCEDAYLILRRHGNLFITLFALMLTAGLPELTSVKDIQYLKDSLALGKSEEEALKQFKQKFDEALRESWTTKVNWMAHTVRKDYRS
T3 sequence (P48736 whole entry): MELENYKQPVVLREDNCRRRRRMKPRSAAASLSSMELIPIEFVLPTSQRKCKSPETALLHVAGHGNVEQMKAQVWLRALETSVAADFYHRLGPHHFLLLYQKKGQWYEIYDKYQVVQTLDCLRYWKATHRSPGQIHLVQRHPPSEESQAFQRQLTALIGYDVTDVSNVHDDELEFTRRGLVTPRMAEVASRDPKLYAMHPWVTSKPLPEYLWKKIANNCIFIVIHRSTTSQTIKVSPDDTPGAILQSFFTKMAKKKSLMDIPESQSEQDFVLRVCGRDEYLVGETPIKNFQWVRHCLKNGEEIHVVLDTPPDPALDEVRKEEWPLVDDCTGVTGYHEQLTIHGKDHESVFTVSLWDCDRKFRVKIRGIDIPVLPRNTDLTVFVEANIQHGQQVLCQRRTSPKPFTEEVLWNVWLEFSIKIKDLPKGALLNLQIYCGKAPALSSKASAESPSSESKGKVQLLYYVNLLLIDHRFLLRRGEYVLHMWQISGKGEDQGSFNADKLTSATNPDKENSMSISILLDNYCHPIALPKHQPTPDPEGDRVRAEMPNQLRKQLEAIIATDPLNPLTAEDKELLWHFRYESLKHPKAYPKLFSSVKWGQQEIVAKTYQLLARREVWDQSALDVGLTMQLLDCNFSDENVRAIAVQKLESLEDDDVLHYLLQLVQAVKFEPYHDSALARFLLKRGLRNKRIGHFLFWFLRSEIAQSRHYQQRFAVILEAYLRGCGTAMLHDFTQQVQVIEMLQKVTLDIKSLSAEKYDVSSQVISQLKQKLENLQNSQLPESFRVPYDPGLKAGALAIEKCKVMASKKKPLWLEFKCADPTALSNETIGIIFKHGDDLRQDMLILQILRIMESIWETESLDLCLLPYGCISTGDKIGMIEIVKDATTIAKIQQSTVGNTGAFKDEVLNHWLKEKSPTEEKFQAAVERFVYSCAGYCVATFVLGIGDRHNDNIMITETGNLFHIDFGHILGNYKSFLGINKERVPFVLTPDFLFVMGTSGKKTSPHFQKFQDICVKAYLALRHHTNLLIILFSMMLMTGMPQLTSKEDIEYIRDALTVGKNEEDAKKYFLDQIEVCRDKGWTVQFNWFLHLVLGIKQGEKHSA

Row | SMILES | Kd (PI3Kβ) [nM] | IC50 [1] [nM] | Kd (PI3Kδ) [nM] | Kd (kinase enzymes [2]) [nM] | Kd (kinase enzymes [3]) [nM] | Kd (kinase enzymes [4]) [nM] | IC50 [5] [nM]
1 | Cc1cccc(N(C)C(C)c2cc(C(=O)N(C)C)cc3ncc(N4CCOCC4)nc23)c1 (single isomer, unassigned) [Compound 128] | 1120 | > 513 | 15100 | 12300 | 4900 | 21400 | > 513
2 | CNCCNC(=O)c1cc(C(C)Nc2cccc(F)c2)c2nc(N3CCOCC3)cnc2c1 (single isomer, unassigned) [Compound 138] | 0.1 | 3 | 56 | 2150 | 398 | 30900 | 2
3 | CNCCNC(=O)c1cc(C(C)Nc2cccc(F)c2)c2nc(N3CCOCC3)cnc2c1 (single isomer, unassigned) [Compound 139] | 41 | 132 | 4420 | 3430 | 3760 | 18600 | 249
4 | CNCCN(C)C(=O)c1cc(C(C)Nc2cc(F)cc(F)c2)c2nc(N3CCOCC3)cnc2c1 (single isomer, unassigned) [Compound 152] | 10 | 62 | 1820 | 8710 | 3980 | > 30200 | 87
5 | CC(Nc1cc(F)cc(F)c1)c1cc(CO)cc2ncc(N3CCOCC3)nc12 (single isomer, unassigned) [Compound 154a] | 1 | 30 | 98 | 741 | 437 | 8510 | 23
6 | CC(Nc1cc(F)cc(F)c1)c1cc(CN2CCS(=O)(=O)CC2)cc2ncc(N3CCOCC3)nc12 (single isomer, unassigned) [Compound 156] | 2 | 42 | 363 | > 30200 | 398 | > 30200 | 51
7 | CC(Nc1cc(F)cc(F)c1)c1cc(CN2CCS(=O)(=O)CC2)cc2ncc(N3CCOCC3)nc12 (single isomer, unassigned) [Compound 157] | 102 | > 513 | 20000 | > 30200 | 13200 | > 30200 | 417
8 | CC(Nc1cc(F)cc(F)c1)c1cc(C(=O)N(C)C)cc2ncc(C3=CCOCC3)nc12 (single isomer, unassigned) [Compound 158] | 0.4 | 23 | 120 | 2290 | 339 | > 30200 | 20

Other lines, results leading:

Row | Kd (PI3Kβ) [nM] | IC50 [1] [nM] | Kd (PI3Kδ) [nM] | Kd (kinase enzymes [2]) [nM] | Kd (kinase enzymes [3]) [nM] | Kd (kinase enzymes [4]) [nM] | IC50 [5] [nM] | SMILES
9 | 110 | > 513 | 23400 | > 30200 | > 30200 | > 30200 | > 513 | CC(Nc1cc(F)cc(F)c1)c1cc(C(=O)N(C)C)cc2ncc(C3=CCOCC3)nc12 (single isomer, unassigned) [Compound 159]
10 | 832 | > 513 | 16200 | > 30200 | > 30200 | > 30200 | > 513 | CC(Nc1cc(F)cc(F)c1)c1cc(CNCC(F)(F)F)cc2ncc(N3CCOCC3)nc12 (single isomer, unassigned) [Compound 163]
11 | 19 | > 513 | 4070 | 14800 | 16600 | 21900 | > 513 | CNCCNC(=O)c1cc(C(C)Oc2cc(F)cc(F)c2)c2nc(N3CCOCC3)cnc2c1 (single isomer, unassigned) [Compound 166]
12 | 0.4 | 9 | 112 | 2570 | 1700 | > 30200 | 11 | CNCCOCCN(C)C(=O)c1cc(C(C)Nc2cc(F)cc(F)c2)c2nc(N3CCOCC3)cnc2c1 (single isomer, unassigned) [Compound 175]
13 | 2 | 60 | 170 | 6920 | 1380 | 24000 | 42 | CC(Nc1cc(F)cc(F)c1)c1cc(COCCO)cc2ncc(N3CCOCC3)nc12 (single isomer, unassigned) [Compound 177]

— US10526316B2, “Quinoxaline and pyridopyrazine derivatives as PI3Kβ inhibitors” (Janssen Pharmaceutica NV, priority 2015, dated 2020)
